Holding throughout (type): biochemical
Assay [1] has as its target T1, UCHL1 (Homo sapiens, UniProt P09936).
T1 construct: purchased SignalChem U22-30H
T1 sequence (P09936 1-223): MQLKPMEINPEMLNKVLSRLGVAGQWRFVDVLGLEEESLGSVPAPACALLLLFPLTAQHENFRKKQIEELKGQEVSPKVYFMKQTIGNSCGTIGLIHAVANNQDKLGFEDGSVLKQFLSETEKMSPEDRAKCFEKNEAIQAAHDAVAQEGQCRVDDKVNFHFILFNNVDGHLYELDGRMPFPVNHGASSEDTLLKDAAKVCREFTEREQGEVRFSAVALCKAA
The assay is described as follows: UCHL1 activity assay, Ubiquitin-AMC substrate. The following applies: n = 2. The protocol: (§1) IC50 measurements were conducted at Reaction Biology Corporation, Malvern, PA, USA, with two replications using 10 concentrations starting at 200 μM with three-fold dilution. Curve fits were performed where the enzyme activities at the highest concentration of compounds were less than 65%. UCHL1 II was used as a control inhibitor. The procedure was performed analogous to the fluorogenic SENP2 assay described in 3.3.2. using the UCHL1 enzyme (SignalChem Cat# U22-30H) and Ubiquitin-AMC substrate (Enzo Cat# BML-SE211-0025). The final reaction conditions contained 0.2 nM UCHL1 and 100 nM Ubiquitin-AMC.

For assay [2], the target named is T2, SENP1 (Homo sapiens, UniProt Q9P0U3).
T2 construct: Human recombinant, His6-SENP1 Catalytic Domain; His6 (N); purchased Boston Biochem (Bio-Techne AG) E-700
T2 sequence (Q9P0U3 450-613 limits assumed): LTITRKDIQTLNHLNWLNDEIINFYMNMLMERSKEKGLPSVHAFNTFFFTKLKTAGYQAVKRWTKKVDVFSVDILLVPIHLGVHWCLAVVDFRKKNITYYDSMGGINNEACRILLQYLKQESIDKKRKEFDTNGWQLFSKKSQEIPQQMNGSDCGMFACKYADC
Description: Fluorogenic SENP1 assay, SUMO1-AMC substrate. The protocol:
Human recombinant, His6-SENP1 Catalytic Domain (Boston Biochem Cat# E-700, Bio-Techne AG, Zug, Switzerland) was prepared in reaction buffer (50 mM HEPES, 150 mM NaCl, 0.5 mM EDTA, 1 mM DTT, pH 7.5, 0.01% CHAPS). To this solution, a 20 mM or 50 mM inhibitor stock solution in DMSO was added and the mixture was incubated for 15 min at ambient temperature. […] The slope was calculated using Excel and the curve fits were performed using GraphPad Prism7 with a four-parameter least-squares fit. The final reaction conditions contained 0.02 nM SENP1 and 300 nM SUMO1/2 or 3-AMC).

The target of assay [3] is T3, SENP2 (Homo sapiens, UniProt Q9HC62).
T3 construct: Human recombinant catalytic domain expressed in E. coli; purchased Enzo BML-UW9765; host or cells: E. coli
T3 sequence (Q9HC62 396-560 limits assumed): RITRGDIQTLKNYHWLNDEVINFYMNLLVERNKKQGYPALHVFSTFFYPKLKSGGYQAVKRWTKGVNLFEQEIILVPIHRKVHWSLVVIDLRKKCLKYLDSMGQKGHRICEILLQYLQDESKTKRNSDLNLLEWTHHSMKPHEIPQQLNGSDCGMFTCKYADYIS
The assay is described as follows: Fluorogenic SENP2 assay, SUMO1-AMC substrate. The following applies: n = 2. The protocol:
The IC50 measurements were conducted at Reaction Biology Corporation, Malvern, PA, USA, with two replications using 10 concentrations starting at 200 μM with a three-fold dilution. Curve fits were performed where the enzyme activities at the highest concentration of compounds were less than 65%. UCH-L3 I was used as a control inhibitor. To SENP2 (Enzo Cat# BML-UW9765, Human recombinant catalytic domain expressed in E. coli.) in reaction buffer (50 mM HEPES, 150 mM NaCl, 0.5 mM EDTA, 1 mM DTT, pH 7.5, 0.01% CHAPS) was delivered the compound stock solution by acoustic technology (Echo550; nanoliter range) and subsequently incubated for 15 min at ambient temperature. The substrate SUMO1-AMC (R&D Systems Cat# UL-551-050, Lot# 07613314A, Fluorescence labeled full-length SUMO1 protein) was delivered to the well-plate to initiate the reaction. The enzyme activities were monitored (Ex/Em = 355/460 nm) as a time-course measurement of the increase in fluorescence signal from SUMO1-AMC for 90 min at ambient temperature. The data were analyzed by taking the slope (signal/time) of linear portion of measurement. The slope was calculated using Excel and the curve fits were performed using GraphPad Prism7 with a four-parameter least-squares fit. The final reaction conditions contained 0.015 nM SENP2 and 300 nM SUMO1/2 or 3-AMC.

Assay [4] concerns the target T2, SENP1. Description: Fluorogenic SENP1 assay, SUMO2-AMC substrate. The following applies: n = 2. The protocol: Human recombinant, His6-SENP1 Catalytic Domain (Boston Biochem Cat# E-700, Bio-Techne AG, Zug, Switzerland) was prepared in reaction buffer (50 mM HEPES, 150 mM NaCl, 0.5 mM EDTA, 1 mM DTT, pH 7.5, 0.01% CHAPS). To this solution, a 20 mM or 50 mM inhibitor stock solution in DMSO was added and the mixture was incubated for 15 min at ambient temperature. […] The data were analyzed by taking the slope (signal/time) of the linear portion of measurement. The slope was calculated using Excel and the curve fits were performed using GraphPad Prism7 with a four-parameter least-squares fit. The final reaction conditions contained 0.02 nM SENP1 and 300 nM SUMO1/2 or 3-AMC).

The target in assay [5] is T4, Ataxin-3 (Homo sapiens, UniProt P54252).
T4 construct: purchased BPS 80399
T4 sequence (P54252 whole entry): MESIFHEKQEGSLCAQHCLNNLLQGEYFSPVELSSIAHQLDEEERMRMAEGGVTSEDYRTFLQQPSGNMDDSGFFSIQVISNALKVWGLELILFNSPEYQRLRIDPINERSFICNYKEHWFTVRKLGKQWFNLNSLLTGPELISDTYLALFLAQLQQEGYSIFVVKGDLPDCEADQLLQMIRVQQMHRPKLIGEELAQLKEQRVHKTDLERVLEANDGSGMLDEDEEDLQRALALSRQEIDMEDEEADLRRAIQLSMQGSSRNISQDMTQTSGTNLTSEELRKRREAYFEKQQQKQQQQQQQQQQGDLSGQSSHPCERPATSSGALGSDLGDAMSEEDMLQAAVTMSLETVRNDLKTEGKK
Description: Ataxin-3 activity assay, Ubiquitin-AMC substrate. The following applies: n = 2. On the procedure:
as §1, with “the Ataxin-3” for “the UCHL1”, “enzyme (BPS” for “enzyme (SignalChem”, “Cat# 80399)” for “Cat# U22-30H)”, “contained 500” for “contained 0.2”, “nM Ataxin-3” for “nM UCHL1”

SMILES strings stand for the structures.

As to `O=C(Cn1nnc(-c2ccccc2)n1)N1c2ccccc2NC(=O)C12CCCC2` [Compound 11, 1′-[2-(5-Phenyl-2H-1,2,3,4-tetrazol-2-yl)acetyl]-3′,4′-dihydro-1′H-spiro[cyclopentane-1,2′-quinoxalin]-3′-one], the 50% inhibitory concentration (IC50) (commonly the concentration that gives 50% inhibition) was 77 µM in assay [1]; 8.6 µM in assay [2] (SUMO1-AMC 300 nM, 0.02 nM SENP1, interval in parentheses, read-out: IC50 SENP1); 5.1 µM in assay [2] (screening library samples, SUMO1-AMC, read-out: IC50 SENP1 of hit molecules); 2.3 µM in assay [3]; 43 µM in assay [4]; 68 µM in assay [5].

For the origin of these results see PMC9602571, “Discovery of a Dual SENP1 and SENP2 Inhibitor” (International Journal of Molecular Sciences, 2022).
